{"source": "patent US20050026783A1", "about": "“Herbicide combinations comprising specific sulfonamides” (priority 2003, published 2005)", "key": {"[1]": {"system": "Veronica hederifolia", "type": "in vivo", "conditions": "field trial, scored about 4 weeks after application, mean of 2-4 plots", "procedure": "(§1) The seeds or rhizome pieces of the harmful plants and the useful plants were laid out or were present in the soil, and they were grown under natural outdoor conditions. Treatment with the active compounds or active compound combinations was carried out […] before and/or after the emergence of the plants, generally at the 2- to 4-leaf stage, in various dosages using a water application rate of 100 to 400 l/ha (converted).\n(§2) After the application (about 4 weeks after the application), the effectiveness of the active compounds or active compound combinations was scored visually by comparing the treated plots to untreated control plots. During scoring, damage and development of all above-ground parts of plants was assessed. Scoring was carried out using a percentage scale (100% effect=all plants have died; 50% effect=50% of the plants and the green parts of the plants have died; 0% effect=no effect observed=like control plot). In each case, the mean score of 2-4 plots was calculated.\n(§3) The results are shown in the table below; the effect of the individual application of active compounds (A+B) and C being stated in brackets."}, "[2]": {"system": "Triticum aestivum", "type": "in vivo", "conditions": "field trial, scored about 4 weeks after application, mean of 2-4 plots", "procedure": "as §1, §2, §3"}, "[3]": {"conditions": "application rate 15 g of active substance/hectare"}, "[4]": {"conditions": "application rate 80 g of active substance/hectare"}, "[5]": {"conditions": "application rate 20 g of active substance/hectare"}}, "note": "Where two headings read alike, the source gives them in different places.", "data": [{"smiles": "COc1cc(OC)nc(NC(=O)NS(=O)(=O)N(C)S(C)(=O)=O)n1", "note": "[amidosulfuron, 1-(4,6-dimethoxypyrimidin-2-yl)-3-mesyl-(methyl)sulfamoylurea]", "values": [{"measurement": "Veronica hederifolia % effect", "setting": "[1]; [3]", "value": 20, "unit": "%"}, {"measurement": "Triticum aestivum % damage", "setting": "[2]; [3]", "value": 0, "unit": "%"}]}, {"smiles": "CCCCCCCC(=O)Oc1c(I)cc(C#N)cc1I", "note": "[ioxynil-octanoate]", "values": [{"measurement": "Veronica hederifolia % effect", "setting": "[1]; [4]", "value": 45, "unit": "%"}, {"measurement": "Triticum aestivum % damage", "setting": "[2]; [4]", "value": 0, "unit": "%"}]}, {"smiles": "CCCOc1nn(C(=O)[N-]S(=O)(=O)c2ccccc2C(=O)OC)c(=O)n1C.[Na+]", "note": "[propoxycarbazone-sodium]", "values": [{"measurement": "Veronica hederifolia % effect", "setting": "[1]; [5]", "value": 25, "unit": "%"}, {"measurement": "Triticum aestivum % damage", "setting": "[2]; [5]", "value": 1, "unit": "%"}]}]}
